Measurements taken from patent US20240294551A1 (AMGEN INC., priority 2022, published 2024).
Read-outs that look alike come from different tables or passages of the source.

Columns and labels:
[1] = test system: Phosphorylation of ERK1/2 in AsPC-1 cells; test: Phospho-ERK1/2 MSD Assay; assay type: cell-based, human; conditions: Homo sapiens, ASPC1, 2 h
How it was run: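 Read-out: MSD electrochemiluminescent detection of phosphorylated ERK1/2 in whole-cell lysates, fitted to a 4-parameter logistic curve for IC50. Prior to lysis, AsPC-1 cells (25,000 per well) received a 2 h compound dose-response at 37 °C.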

MIA PaCa-2 cells = test: MIA PaCa-2 CTG Assay (CellTiter-Glo cell viability); assay type: cell-based, human; conditions: Homo sapiens; MIA PaCa-2 cells (G12C), 72 h; second value of the cell; read-out: G12D/C/V Cell Proliferation CTG (72 h) MIA PaCa-2
Protocol: MIA PaCa-2 CTG Assay Protocol
MIA PaCa-2 (human pancreatic carcinoma; ATCC CRL-1420) cells were cultured in RPMI 1640 medium containing 10% fetal bovine serum and 1× penicillin/streptomycin/L-glutamine. Cells were seeded in 384-well plates at a density of 1.67E+04 cells/mL and incubated at 37° C., 5% CO2, overnight. Serially-diluted compound or DMSO was added to the cells, and plates were incubated at 37° C., 5% CO2 for 72 h. Cell viability was measured using a CellTiter-Glo® Luminescent Cell Viability Assay kit (Promega) according to the manufacturer's protocol. The luminescence signal of treated samples was normalized to DMSO control, and data were analyzed using a 4-parameter logistic model to calculate IC50 values.

[2] = biological target: His-tagged KRAS G12D protein (Homo sapiens (Human), UniProt P01116, G12D); test: KRAS G12D TR-FRET Assay; assay type: binding
How it was run: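 His-tagged KRAS G12D (diluted to 20 nM in pH 7.4 HEPES buffer with 10 mM MgCl2 and 10 μM GDP) was preincubated with titrated compound for 30 min at room temperature. Biotinylated KRPep-2d peptide (diluted to 20 nM) was then added for 1 h, and displacement was monitored by TR-FRET.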

AsPC-1 cells = test: AsPC-1 CTG Assay (CellTiter-Glo cell viability); assay type: cell-based, human; conditions: Homo sapiens, ASPC1, 72 h, first value of the cell, read-out: G12D/C/V Cell Proliferation CTG (72 h) AsPC-1
How it was run: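 Human pancreatic AsPC-1 or colon SW620 cells in RPMI 1640 with 10% FBS, seeded overnight, then exposed to serially diluted compound for 72 h at 37 °C. CellTiter-Glo luminescence normalized to DMSO control; IC50 from a 4-parameter logistic model.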

[3] = biological target: GDP-bound KRAS protein (aa 1-169), containing both G12D and C118A amino acid substitutions (Homo sapiens (Human), UniProt P01116, C118A/G12D); test: KRAS G12D Coupled Nucleotide Exchange Assay; assay type: biochemical
[4] = read-out: 2 h p-ERK (AsPC-1 cells)
[5] = read-out: KRAS G12D Binding IC50
[6] = read-out: 2 h p-ERK (AsPC-1 cells), IC50
[7] = read-out: KRAS G12D Coupled Exchange IC50
[8] = TR-FRET, read-out: KRAS G12D Binding
[9] = 2 hours compound pre-incubation, read-out: KRAS G12D Coupled Exchange

GDP-bound KRAS protein (aa 1-169), containing both G12D and C118A amino acid substitutions, sequence (P01116 other isoform, or with tags, fused parts or gaps G12D/C118A): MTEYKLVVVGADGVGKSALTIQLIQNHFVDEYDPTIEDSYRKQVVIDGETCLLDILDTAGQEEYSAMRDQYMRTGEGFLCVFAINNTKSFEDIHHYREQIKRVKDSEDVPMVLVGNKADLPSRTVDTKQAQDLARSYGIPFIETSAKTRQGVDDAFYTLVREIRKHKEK
His-tagged KRAS G12D protein, sequence (P01116 other isoform, or with tags, fused parts or gaps G12D): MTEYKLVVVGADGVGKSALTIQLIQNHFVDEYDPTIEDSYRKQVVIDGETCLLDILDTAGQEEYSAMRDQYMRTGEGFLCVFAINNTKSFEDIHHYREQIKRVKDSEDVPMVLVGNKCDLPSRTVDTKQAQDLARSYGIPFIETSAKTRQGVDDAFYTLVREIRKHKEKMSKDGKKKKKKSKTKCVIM

IC50 [1, 4] [nM]	IC50 (MIA PaCa-2 cells) [nM]	IC50 [2, 5] [nM]	IC50 (AsPC-1 cells; AsPC-1, 72 h) [nM]	IC50 [1, 6] [nM]	IC50 [3, 7] [nM]	IC50 [2, 8] [nM]	IC50 (AsPC-1 cells; AsPC-1 cells (G12D), 72 h) [nM]	IC50 [3, 9] [nM]	Structure (SMILES)
10.4	12	–	–	–	–	–	–	–	Fc1c2ncc3c(nc(OC[C@@]45CCCN4C[C@H](F)C5)nc13)N1CCOC[C@H](C1)c1noc(n1)CCCc1c(Cl)cc3[nH]ncc3c1-2 [Example 381]
–	–	22	953	45.2	13	–	–	–	O=C1OCCc2c(Cl)cc3[nH]ncc3c2-c2cc3nc(OC[C@@]45CCCN4C[C@H](F)C5)nc(c3cn2)N2CCC[C@]3(C2)C[C@H](C3)O1 [Example 343, (1R,3S)-10-chloro-24-(((2R,7aS)-2-fluorotetrahydro-1H-pyrrolo[1,2-a]pyrrol-7a(5H)-yl)methoxy)-4,6-dioxa-13,14,19,23,25,27-hexaazaheptacyclo[25.3.1.1~1,3~.1~18,22~.0~9,17~.0~12,16~.0~21,26~]tritriaconta-9,11,14,16,18(32),19,21,23,25-nonaen-5-one]
–	–	5	123	27.7	4	–	–	–	O=C1N[C@H]2CN(C[C@H]3C[C@H]32)c2nc(OC[C@@]34CCCN3C[C@H](F)C4)nc3c(F)c(ncc23)-c2c(c(Cl)cc3[nH]ncc23)CCC[C@@H]1F [Example 175, (23S,26R,27R,29S)-18-chloro-23,32-difluoro-4-(((2R,7aS)-2-fluorotetrahydro-1H-pyrrolo[1,2-a]pyrrol-7a(5H)-yl)methoxy)-1,3,5,9,14,15,25-heptaazaheptacyclo[24.4.1.1~6,10~.0~2,7~.0~11,19~.0~12,16~.0~27,29~]dotriaconta-2,4,6,8,10(32),11,13,16,18-nonaen-24-one]
–	–	14	1940	245	8	–	–	–	Cc1cc2[nH]ncc2c2c1CCCC(=O)OCCC1CCCN(C1)c1nc(OC[C@@]34CCCN3C[C@H](F)C4)nc3c(F)c-2ncc13 (some centres unmarked) [Example 105]
16.8	–	–	–	–	–	5	1480	3	Fc1c2ncc3c(nc(OC[C@@]45CCCN4C[C@H](F)C5)nc13)N1CCCCC(C1)c1noc(n1)CCCc1c(Cl)cc3[nH]ncc3c1-2 (mixture of isomers) [Example 382]
–	–	6	225	19.8	4	–	–	–	O=C1N[C@@H]2CCCCN(C2)c2nc(OC[C@@]34CCCN3C[C@H](F)C4)nc3c(F)c(ncc23)-c2c(c(Cl)cc3[nH]ncc23)CCCC1F (mixture of isomers) [Example 161]
9.5	–	–	–	–	–	5	74	3	Fc1c2ncc3c(nc(OC[C@@]45CCCN4C[C@H](F)C5)nc13)N1CCO[C@H](C1)c1coc(n1)CCCc1c(Cl)cc3[nH]ncc3c1-2 [Example 390, (18R)-9-chloro-31-fluoro-25-(((2R,7aS)-2-fluorotetrahydro-1H-pyrrolo[1,2-a]pyrrol-7a(5H)-yl)methoxy)-15,19-dioxa-5,6,22,24,26,30,33-heptaazaheptacyclo[25.3.1.1~14,17~.1~18,22~.0~2,10~.0~3,7~.0~23,28~]tritriaconta-1(31),2,4,7,9,14(33),16,23,25,27,29-undecaene]
–	–	4	60	4	3	–	–	–	O=C1C[C@H]2CN(CCO2)c2nc(OC[C@@]34CCCN3C[C@H](F)C4)nc3c(F)c(ncc23)-c2c(c(Cl)cc3[nH]ncc23)CCCO1 [Example 79, (17S)-9-chloro-30-fluoro-24-(((2R,7aS)-2-fluorotetrahydro-1H-pyrrolo[1,2-a]pyrrol-7a(5H)-yl)methoxy)-14,18-dioxa-5,6,21,23,25,29-hexaazahexacyclo[24.3.1.1~17,21~.0~2,10~.0~3,7~.0~22,27~]hentriaconta-1(30),2,4,7,9,22,24,26,28-nonaen-15-one]
–	–	10	613	110	6	–	–	–	O=C1N[C@H]2C[C@@]3(CCCN(C3)c3nc(OC[C@@]45CCCN4C[C@H](F)C5)nc4c(F)c(ncc34)-c3c(c(Cl)cc4[nH]ncc34)CCO1)C2 [Example 289, 10-chloro-32-fluoro-24-(((2R,7aS)-2-fluorotetrahydro-1H-pyrrolo[1,2-a]pyrrol-7a(5H)-yl)methoxy)-6-oxa-4,13,14,19,23,25,27-heptaazaheptacyclo[25.3.1.1~1,3~.1~18,22~.0~9,17~.0~12,16~.0~21,26~]tritriaconta-9,11,14,16,18(32),19,21,23,25-nonaen-5-one]
–	–	14	2230	211	9	–	–	–	Cc1cc2[nH]ncc2c2c1CCCOC(=O)O[C@@H]1CCCCN(C1)c1nc(OC[C@@H]3CCCN3C)nc3c(F)c-2ncc13 [Example 206, (26R)-32-fluoro-18-methyl-4-(((2S)-1-methyl-2-pyrrolidinyl)methoxy)-23,25-dioxa-1,3,5,9,14,15-hexaazahexacyclo[24.4.1.1~6,10~.0~2,7~.0~11,19~.0~12,16~]dotriaconta-2,4,6,8,10(32),11,13,16,18-nonaen-24-one]
–	–	13	1060	128	6	–	–	–	Cc1cc2[nH]ncc2c2c1C[C@@H](C)CCOC[C@@H]1CCCN(C1)c1nc(OC[C@@]34CCCN3C[C@H](F)C4)nc3c(F)c-2ncc13 [Example 250, (12R,17R)-30-fluoro-24-(((2R,7aS)-2-fluorotetrahydro-1H-pyrrolo[1,2-a]pyrrol-7a(5H)-yl)methoxy)-9,12-dimethyl-15-oxa-5,6,21,23,25,29-hexaazahexacyclo[24.3.1.1~17,21~.0~2,10~.0~3,7~.0~22,27~]hentriaconta-1(30),2,4,7,9,22,24,26,28-nonaene]
–	–	19	5000	279	10	–	–	–	Cc1cc2[nH]ncc2c2c1CCC[C@@H](O)CC[C@@H]1CCCN(C1)c1nc(OC[C@@]34CCCN3C[C@H](F)C4)nc3c(F)c-2ncc13 [Example 237, (14R,17S)-30-Fluoro-24-(((2R,7aS)-2-fluorotetrahydro-1H-pyrrolo[1,2-a]pyrrol-7a(5H)-yl)methoxy)-9-methyl-5,6,21,23,25,29-hexaazahexacyclo[24.3.1.1˜17,21˜.0˜2,10˜.0˜3,7˜.0˜22,27˜]hentriaconta-1(30),2,4,7,9,22,24,26,28-nonaen-14-ol]
–	–	6	527	82.9	5	–	–	–	Fc1cc2[nH]ncc2c2c1CCCCOC[C@@H]1CCCCN(C1)c1nc(OC[C@@]34CCCN3C[C@H](F)C4)nc3c(F)c-2ncc13 [Example 239, (26R)-18,32-difluoro-4-(((2R,7aS)-2-fluorotetrahydro-1H-pyrrolo[1,2-a]pyrrol-7a(5H)-yl)methoxy)-24-oxa-1,3,5,9,14,15-hexaazahexacyclo[24.4.1.1~6, 10~.0~2,7~.0~11,19~.0~12,16~]dotriaconta-2,4,6(32),7,9,11,13,16,18-nonaene]
–	–	14	1250	180	5	–	–	–	Cc1cc2[nH]ncc2c2c1CCCOC(=O)O[C@H]1CN(CC[C@H]1F)c1nc(OC[C@@]34CCCN3C[C@H](F)C4)nc3c(F)c-2ncc13 (racemic) [Example 93]
–	–	10	153	71.6	4	–	–	–	C[C@@]12COCCN(C1)c1nc(OC[C@@H]3CC[C@H]4COCCN43)nc3c(F)c(ncc13)-c1c(c(Cl)cc3[nH]ncc13)CCCOC(=O)O2 [Example 309, (26S)-18-chloro-32-fluoro-4-((6S,8aS)-hexahydro-1H-pyrrolo[2,1-c][1,4]oxazin-6-ylmethoxy)-26-methyl-23,25,28-trioxa-1,3,5,9,14,15-hexaazahexacyclo[24.4.1.1~6,10~.0~2,7~.0~11,19~.0~12,16~]dotriaconta-2,4,6,8,10(32),11,13,16,18-nonaen-24-one]
–	–	9	460	59	2	–	–	–	Cc1cc2[nH]ncc2c2c1CCCCC(=O)N1CC[C@@H]3CCN(C[C@@H]31)c1nc(OC[C@@]34CCCN3C[C@H](F)C4)nc3c(F)c-2ncc13 (mixture of isomers) [Example 63]
